# Measured values reported in ChEMBL document CHEMBL3507680, “University of Dundee, Gates Library screen for HepG2 cell viability”.
# Assay: Human HepG2 cell viability assay in 384 well format
# Assay type: toxicity, cell-based
# Parameters: dose 125 nL, time 70.5 hour; concentration not given beside the values
# Settings: HepG2 cells, read-out: Inhibition
row,Structure (SMILES),cytotoxicity at 70.5 h
1,CN(C)c1ncccc1CNc1snc(Cl)c1C#N,-77.9%
2,CN(Cc1cnn(C)c1)C(=O)Cc1ccc2c(c1)OCCO2,-62.7%
3,N#Cc1c(Cl)nsc1NCc1cccnc1OCC(F)(F)F,-105%
4,CC(C(N)=O)N(C)Cc1ccccc1C(F)(F)F (stereo unspecified),-87.9%
5,COCC(=O)N1CCN(Cc2csc(-c3ncccn3)n2)CC1,-2.92%
6,Cc1c(C(=O)NCCC(C)C)nnn1-c1cccc2c1CCN(C)C2,-5.25%
7,CCC(C)(C)NC(=O)c1nnn(-c2cccc3c2CCN(C)C3)c1C,9.39%
8,COCCNC(=O)Nc1cccc2c1CCN(S(C)(=O)=O)C2,-0.282%
9,Cc1cc(C)n(C2CN(CC(=O)N(C)Cc3ccsc3)C2)n1,-1.75%
10,CSCC(=O)Nc1cccc(Oc2ccccn2)c1,9.83%
11,CCN(CC)C(=O)Nc1cccc(Oc2ccccn2)c1,20.3%
12,CCNC(=O)N(CCCO)C1CCCc2ccccc21 (stereo unspecified),-3.93%
13,N#Cc1cccc(S(=O)(=O)N2CCCCC2C(N)=O)c1 (stereo unspecified),-3.12%
14,CCOCCOC(C)C(=O)NCc1cn2cc(Cl)ccc2n1 (stereo unspecified),15.2%
15,CC(=O)Nc1cccc(OCCNC(=O)N(C)Cc2ccccc2)c1,3.43%
16,CCCC(C(=O)NCCc1nc(C)cs1)N(C)C (stereo unspecified),2.88%
17,Cc1nc(C)n(CC2CCCN(Cc3nc(-c4ccco4)no3)C2)n1 (stereo unspecified),-3.87%
18,CC(O)CN1CCN(C(=O)c2cnc(OC(C)C)c(Cl)c2)CC1 (stereo unspecified),5%
19,Cc1ccccc1CN(C)C(=O)Cn1nc(-c2ccc(F)cc2)oc1=O,29.6%
20,Cc1cc(NCc2ccccc2CN2CCCCC2)n2ncnc2n1,-10.1%
21,Cc1cc(=O)n2ncnc2n1CC(O)c1ccc(F)cc1F (stereo unspecified),-16.6%
22,NC(=O)NC(=O)CCN1CCC(C(=O)c2cc(F)ccc2F)CC1,-12.1%
23,O=C(CCN1CCC(C(=O)c2cc(F)ccc2F)CC1)NC1CCCC1,-17.8%
24,O=C(c1cccnc1)N1CCCC1C1CCN(Cc2ccccc2)CC1 (stereo unspecified),-13.7%
25,COCC(C)NC(=O)Nc1cc(-c2ccccc2C)nn1CCO (stereo unspecified),-4.5%

row,Structure (SMILES),cytotoxicity at 70.5 h
1,CC(C)S(=O)(=O)NC(=O)c1cc(-c2cccc(Cl)c2)no1,-11.8%
2,Cc1n[nH]c(C2CN(C(=O)c3ccoc3C)CCO2)n1 (stereo unspecified),1.53%
3,CN(C)S(=O)(=O)c1cccc(CNc2cc(CO)ccc2Cl)c1,-13.5%
4,Cc1ccc(C(=O)N2CCSCC2)cc1NC(C)C,-3.36%
5,CC(C)Oc1ncc(C(=O)N2CCC(N(C)C)CC2)cc1Cl,-9.31%
6,CCCc1nc(CN2CCCC2Cn2cccn2)cs1 (stereo unspecified),-11.6%
7,CC(C)(C)c1noc(CN2CCN(C(=O)c3ccco3)CC2)n1,14.9%
8,CC(C)C(=O)NC1CCN(CCO)CC1,4.41%
9,c1ccc(-c2nnc(CNCC3CCCN3c3cccnn3)o2)cc1 (stereo unspecified),7.04%
10,CN(Cc1nnc(C2CC2)o1)C1CCN(CCc2cccs2)C1 (stereo unspecified),30.4%
11,CC1CCCCN1CCNC(=O)c1ccccc1N1CCOCC1 (stereo unspecified),19%
12,CC1Cc2ccccc2N1Cc1occc1C(=O)O (stereo unspecified),-5.89%
13,O=C(Nc1nnc(C2CC2)s1)NC1CCOc2ccccc21 (stereo unspecified),22.9%
14,CC(C)c1nnc(NC(=O)NC2CCOc3ccccc32)s1 (stereo unspecified),-2.44%
15,CN(CC(N)=O)S(=O)(=O)c1ccc(F)cc1F,-7.55%
16,CNC(=O)CCNC(=O)c1ccccc1N1CCOCC1,-4.86%
17,COCCN1CCC(NC(=O)C(C)C)CC1,-1.39%
18,CC(=O)N1CCN(CC(=O)N2CCN(c3cccc(C)c3)CC2)CC1,24.4%
19,CS(=O)(=O)c1ccc(OCCNCc2cccc(Cl)c2)cc1,23.8%
20,CNS(=O)(=O)CCCn1nnc(-c2ccc(F)c(C)c2)n1,-3.63%
21,Cc1ccc(OCC(=O)NC2CC2)nc1,-2.52%
22,CS(=O)(=O)c1ccc(OCCNCc2ccc(F)cc2)cc1,-1.74%
23,CC(C)Oc1cccc(C(O)CNC(=O)NCc2cccs2)c1 (stereo unspecified),3.68%
24,Cc1noc(C)c1CNC(=O)N1CCCC(C)CC1 (stereo unspecified),-3.6%
25,CNC(=O)CN1CCN(C(=O)Nc2ccc(Cl)cc2F)CC1,-1.72%

row,Structure (SMILES),cytotoxicity at 70.5 h
1,CCN(C(=O)C(C)C)C(c1cccnc1)c1ccc2c(c1)CCO2 (stereo unspecified),18.4%
2,CCC(=O)N(CC)C(c1cccnc1)c1ccc2c(c1)CCO2 (stereo unspecified),-2.76%
3,CCCC(=O)N(CC)C(c1cccnc1)c1ccc2c(c1)CCO2 (stereo unspecified),-4.67%
4,CN(Cc1nnc(C2CC2)n1C)C1CCN(CCc2ccncc2)C1 (stereo unspecified),-6%
5,CC(C)c1nnc(CNCC2CCCN2c2cccnn2)o1 (stereo unspecified),-6.87%
6,c1cnnc(N2CCCC2CNCc2nnc(C3CC3)o2)c1 (stereo unspecified),-3.19%
7,COc1c(CNCc2cccnc2N2CCOCC2)c(C)nn1C,1.9%
8,N#Cc1ccccc1C(=O)Nc1cccc(CN2CCC(CO)CC2)c1,-5.53%
9,NC(=O)CSc1ccccc1NC(=O)C1CCCCC1,28.8%
10,NC(=O)CSc1ccccc1NC(=O)CC1C=CCC1 (stereo unspecified),27.1%
11,CC(C)(C)CC(=O)Nc1ccccc1SCC(N)=O,-3.84%
12,CC(=O)NCCCSCCOc1cccc(C#N)c1,2.91%
13,CC(C)(O)CN1CCN(C(=O)COC2CCCCC2)CC1,1.44%
14,c1csc(SCC2CN=C(N3CCOCC3)S2)c1 (stereo unspecified),-3.45%
15,Cc1ccc(CNC(=O)CN2CCN(CCO)CC2)s1,-6.79%
16,Cc1ccc(C(O)CNC(=O)CCCc2ccccn2)o1 (stereo unspecified),-8.17%
17,CN(CC(=O)N1CCCC1c1ccccn1)Cc1ccccc1 (stereo unspecified),-6.16%
18,Cc1ccc(C(=O)N2CCOc3nc(C)ccc32)c(F)c1,26.7%
19,CNC(=O)COc1cccc(CNCc2c(C)noc2C)c1,10.2%
20,CC(C)c1nnc(NC(=O)Cc2ccc(F)cc2)[nH]1,-13.1%
21,CNC(=O)COc1cccc(CNC(=O)c2c(C)noc2C)c1,-10.6%
22,CN(Cc1ccc(Cl)s1)C(=O)CN1CC(n2cccn2)C1,-14.6%
23,CSc1ccsc1C(=O)NS(=O)(=O)c1cnn(C)c1,-15.6%
24,CCc1cc(CNC(=O)Nc2cc(F)ccc2N2CCCCC2)on1,-2.62%
25,O=C(CN1CCSC2(CCCCC2)C1)NCC(F)(F)F,-10.8%

row,Structure (SMILES),cytotoxicity at 70.5 h
1,CSc1ccsc1C(=O)NS(=O)(=O)c1ccc(F)cc1,-7.27%
2,O=C(Nc1cc(CSCCO)ccn1)c1cc2ccccc2[nH]1,13.4%
3,CCOc1cccc(CCNC(=O)Cc2cccc(O)c2)n1,-7.71%
4,CN(Cc1ccc([S+](C)[O-])cc1)c1ccc(Cl)cn1 (stereo unspecified),20.8%
5,Cn1ncnc1CNC1CCc2cc(Cl)ccc21 (stereo unspecified),-19.7%
6,Cn1ncnc1CNC1CCCc2cc(F)ccc21 (stereo unspecified),-11.4%
7,Cc1n[nH]cc1CNC(C(=O)N1CCOCC1)c1ccccc1 (stereo unspecified),15.2%
8,Cc1noc(C)c1CC(=O)OCc1nc(N)c2ccccc2n1,-3%
9,Cc1cccc(C(C)(C)CNC(=O)CCSc2nnnn2C)c1,-2.6%
10,Cc1nc(-c2ccccc2)n(CC(=O)NC(C)C2CC2)n1 (stereo unspecified),-5.73%
11,Cc1nc(-c2ccccc2C)n(CC(=O)NC(C)C)n1,12.9%
12,Cc1ccccc1C(C)(C)CNC(=O)CCSc1nnnn1C,-1.67%
13,Cc1ccc(CNc2ccc(C(=O)N3CCNC(=O)C3)cn2)cc1,4.12%
14,CC(C)n1cc(S(=O)(=O)NCCc2nnc3ccccn23)cn1,5.41%
15,COc1cccc(CNC(=O)Nc2ccc3[nH]nnc3c2)c1OC,-9.41%
16,O=S(=O)(NCCc1nnc2ccccn12)c1cccnc1,14.7%
17,N#Cc1ccc(N2CCN(c3cnccn3)CC2)c(C(F)(F)F)c1,2.94%
18,Cn1cnnc1-c1cncc(NCc2cccc3c2OCO3)c1,-1.67%
19,Cc1cc(=O)c(C(=O)Nc2cccc(CCN3CCCC3)c2)c[nH]1,-2.1%
20,CC(=O)c1ccc(NC(=O)NCc2cccc(N(C)C)n2)cc1C,-1.51%
21,O=S(=O)(c1cccnc1)N1CCC(OCCCc2ccccc2)C1 (stereo unspecified),-0.248%
22,Cc1ccc(F)c(C(=O)Nc2cccc(CCN3CCCC3)c2)c1,-1.18%
23,Cc1ccc(S(=O)(=O)N2CCn3nc(C)nc3C2)c(Cl)c1,-2.97%
24,C1CCN(CCOC2CCNCC2)C1,-2.17%
25,N#CCCN(Cc1cccnc1)C(=O)c1ccc(-n2cnnn2)cc1,-12.1%

row,Structure (SMILES),cytotoxicity at 70.5 h
1,Cn1cnnc1CNC(=O)C1CCCN(Cc2cccc(F)c2)C1 (stereo unspecified),-13.7%
2,O=C(Cn1nnc(-c2cc3ccccc3o2)n1)N1CCOCC1,-18.1%
3,O=C1CCC(C(=O)NCCOc2cccc(Cl)c2Cl)CN1 (stereo unspecified),-13.1%
4,CC(C)CNC(=O)c1ccc(NC(=O)NC(C)C)cc1Cl,-11.5%
5,Cc1nc(NC(=O)C2CCCN(C(=O)C3CC3)C2)sc1C (stereo unspecified),-14.8%
6,CNC(=O)Cn1nnc(-c2cc3ccccc3o2)n1,-5.34%
7,O=C(CCc1ccc(F)cc1)NCc1ccnc(NC2CC2)c1,-2.2%
8,Cc1ncc2c(n1)CCCC2NC(=O)c1ccccc1Cn1cncn1 (stereo unspecified),18.1%
9,CC(C)C(=O)NCCNC(=O)C12CCC(=O)N1c1cc(Cl)ccc1S2 (stereo unspecified),-1.8%
10,Cc1cccc(N(CC(=O)N2CCCCC2)Cc2ccno2)c1,-5.71%
11,OCCN(Cc1nc(-c2ccc3c(c2)OCO3)no1)CC1CC1,4.42%
12,Cc1ncc(CNCC(=O)NCC(F)(F)F)n1-c1ccccc1,-5.37%
13,CC(C)C(=O)N1CCCN(C(=O)NC2CCc3ccccc3C2)CC1 (stereo unspecified),-4.48%
14,COc1cccc(NC(=O)CNc2ccc(C(=O)N(C)C)c(Cl)c2)c1,-4.79%
15,CCOC(=O)Cn1ccc2cc(NC(=O)N3CCSCC3)ccc21,1.82%
16,Cc1csc(N2CCN(Cc3ccn(C)c(=O)c3)CC2)n1,-5.98%
17,c1cnc(N2CCN(Cn3nccc3-c3cccnc3)CC2)nc1,5.37%
18,CC(C)(C)CCN1CCN(Cn2nccc2-c2cccnc2)CC1,0.907%
19,Cn1cc(CCCNC(=O)NC2CCN(c3ccccc3)C2=O)cn1 (stereo unspecified),-5.19%
20,NCCNS(=O)(=O)Cc1ccc(Br)cc1,-0.385%
21,NCCCNS(=O)(=O)Cc1ccc(Br)cc1,-9.57%
